Experimental data published in US20230219986A1, “NOVEL AMINOPYRIMIDINE EGFR INHIBITOR” (QILU PHARMACEUTICAL CO., LTD., priority 2020, published 2023).

Tests used:
[1] = molecular target: T1, wild-type EGFR (Homo sapiens, UniProt P00533); assay: Enzymology experiment in vitro (HTRF/FRET kinase activity), wild-type EGFR; type: biochemical; conditions: HTRF KinEASE-TK, read-out: EGFR (WT) IC50
T1 construct: purchased Signalchem
Summary of the method: (§1)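 HTRF KinEASE-TK format: EGFR enzyme preincubated with compound 10 min at room temperature, then peptide substrate plus ATP added for 40 min. Detection with EDTA, XL665-streptavidin and Eu³⁺-labeled antibody for 1 h.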

[2] = molecular target: T2, L858R/T790M/C797S triple mutant EGFR (Homo sapiens, UniProt P00533, C797S/L858R/T790M); assay: Enzymology experiment in vitro (HTRF/FRET kinase activity), L858R/T790M/C797S triple mutant EGFR; type: biochemical; conditions: HTRF KinEASE-TK, read-out: EGFR (L858R/T790M/C797S) IC50
T2 construct: purchased Signalchem
Summary of the method: as §1

[3] = system: EGFR wild-type cell line A431; assay: Cell proliferation inhibition experiment (CellTiter-Glo), A431; type: cell-based; conditions: Homo sapiens, A-431, 72 h, A431 cells, Cell Titer-Glo, read-out: A431 EGFR WT IC50
Summary of the method: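 A431 cells, 800 per well, were cultured 24 h and then exposed to serially diluted compound (0.1% DMSO final) for 72 h at 37° C., 5% CO2.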

[4] = molecular target: Ba/F3 De119/T790M/C797S EGFR triple mutant cell line (Homo sapiens, UniProt P00533, T790M/C797S, cells depend on it, form not given); assay: Cell proliferation inhibition experiment (CellTiter-Glo), Ba/F3 De119/T790M/C797S; type: cell-based; conditions: Ba/F3 Del19/T790M/C797S EGFR triple mutant cells, 72 hours, Cell Titer-Glo; read-out: Ba/F3 (Del19/T790M/C797S) IC50
[5] = molecular target: Ba/F3 L858R/T790M/C797S EGFR triple mutant cell line (Homo sapiens, UniProt P00533, T790M/C797S/L858R, cells depend on it); assay: Cell proliferation inhibition experiment (CellTiter-Glo), Ba/F3 L858R/T790M/C797S; type: cell-based; conditions: 72 hours, Cell Titer-Glo, read-out: Ba/F3 (L858R/T790M/C797S) IC50
Sequence of Ba/F3 L858R/T790M/C797S EGFR triple mutant cell line (P00533 whole entry T790M/C797S/L858R): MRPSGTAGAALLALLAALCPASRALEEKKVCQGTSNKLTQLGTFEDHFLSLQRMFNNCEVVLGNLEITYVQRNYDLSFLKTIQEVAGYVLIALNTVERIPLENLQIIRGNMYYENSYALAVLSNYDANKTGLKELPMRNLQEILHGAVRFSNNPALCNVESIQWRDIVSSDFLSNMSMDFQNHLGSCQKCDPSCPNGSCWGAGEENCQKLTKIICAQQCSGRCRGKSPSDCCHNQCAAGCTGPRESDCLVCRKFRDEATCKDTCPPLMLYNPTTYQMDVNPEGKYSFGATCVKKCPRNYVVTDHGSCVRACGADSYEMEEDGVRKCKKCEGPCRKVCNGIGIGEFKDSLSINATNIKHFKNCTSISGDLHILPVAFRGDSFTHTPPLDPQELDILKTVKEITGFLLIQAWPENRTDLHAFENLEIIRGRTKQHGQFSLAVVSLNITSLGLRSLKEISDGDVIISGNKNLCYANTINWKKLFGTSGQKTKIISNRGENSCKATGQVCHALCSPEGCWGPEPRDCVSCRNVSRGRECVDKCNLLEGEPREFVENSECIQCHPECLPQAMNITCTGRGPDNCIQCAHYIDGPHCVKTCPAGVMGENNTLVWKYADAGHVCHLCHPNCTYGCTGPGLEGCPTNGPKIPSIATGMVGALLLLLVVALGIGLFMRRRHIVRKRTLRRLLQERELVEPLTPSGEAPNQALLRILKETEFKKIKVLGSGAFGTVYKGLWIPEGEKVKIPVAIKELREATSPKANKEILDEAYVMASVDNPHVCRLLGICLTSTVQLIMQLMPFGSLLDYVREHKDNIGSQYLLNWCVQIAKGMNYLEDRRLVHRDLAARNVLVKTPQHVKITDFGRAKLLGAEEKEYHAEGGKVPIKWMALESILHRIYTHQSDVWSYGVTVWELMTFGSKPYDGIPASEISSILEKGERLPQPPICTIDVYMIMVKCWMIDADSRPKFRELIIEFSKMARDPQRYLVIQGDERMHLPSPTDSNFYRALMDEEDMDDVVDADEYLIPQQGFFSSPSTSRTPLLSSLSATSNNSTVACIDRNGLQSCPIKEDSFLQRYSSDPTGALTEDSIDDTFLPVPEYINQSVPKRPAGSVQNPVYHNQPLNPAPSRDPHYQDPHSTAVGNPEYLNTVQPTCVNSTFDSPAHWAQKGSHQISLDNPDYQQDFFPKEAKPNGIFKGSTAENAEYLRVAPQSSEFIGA

T2 sequence (P00533 25-1210 T790M/C797S/L858R): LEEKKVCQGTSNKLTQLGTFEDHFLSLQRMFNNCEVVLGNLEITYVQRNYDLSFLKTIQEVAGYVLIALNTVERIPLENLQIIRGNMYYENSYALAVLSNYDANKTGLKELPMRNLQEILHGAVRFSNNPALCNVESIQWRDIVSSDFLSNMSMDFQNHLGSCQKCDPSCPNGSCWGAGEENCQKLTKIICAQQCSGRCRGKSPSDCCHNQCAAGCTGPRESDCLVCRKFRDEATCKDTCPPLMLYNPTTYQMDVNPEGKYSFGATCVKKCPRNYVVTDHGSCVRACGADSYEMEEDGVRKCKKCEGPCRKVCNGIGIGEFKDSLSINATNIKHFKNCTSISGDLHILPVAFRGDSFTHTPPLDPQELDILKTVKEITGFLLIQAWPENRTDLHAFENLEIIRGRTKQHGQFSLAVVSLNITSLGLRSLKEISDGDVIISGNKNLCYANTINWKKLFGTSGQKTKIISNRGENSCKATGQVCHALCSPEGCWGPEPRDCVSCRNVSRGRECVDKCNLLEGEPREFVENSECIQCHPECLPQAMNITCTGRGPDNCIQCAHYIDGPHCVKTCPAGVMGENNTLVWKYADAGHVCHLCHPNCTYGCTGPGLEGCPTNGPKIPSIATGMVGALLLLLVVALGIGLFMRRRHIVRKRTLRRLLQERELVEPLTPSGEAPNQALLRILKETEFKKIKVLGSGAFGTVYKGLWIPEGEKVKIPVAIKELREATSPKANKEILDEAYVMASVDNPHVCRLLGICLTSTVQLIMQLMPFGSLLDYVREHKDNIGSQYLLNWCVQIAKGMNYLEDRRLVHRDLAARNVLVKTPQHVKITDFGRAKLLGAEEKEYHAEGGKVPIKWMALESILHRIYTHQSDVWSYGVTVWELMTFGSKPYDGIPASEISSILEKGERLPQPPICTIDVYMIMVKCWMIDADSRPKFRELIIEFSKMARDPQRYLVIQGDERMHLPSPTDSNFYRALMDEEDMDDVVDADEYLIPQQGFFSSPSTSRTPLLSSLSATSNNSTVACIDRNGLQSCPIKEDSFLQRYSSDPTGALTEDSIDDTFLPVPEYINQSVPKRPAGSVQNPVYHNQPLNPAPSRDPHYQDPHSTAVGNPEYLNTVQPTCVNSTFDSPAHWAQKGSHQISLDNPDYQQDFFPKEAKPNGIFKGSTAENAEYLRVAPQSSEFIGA
T1 sequence (P00533 25-1210): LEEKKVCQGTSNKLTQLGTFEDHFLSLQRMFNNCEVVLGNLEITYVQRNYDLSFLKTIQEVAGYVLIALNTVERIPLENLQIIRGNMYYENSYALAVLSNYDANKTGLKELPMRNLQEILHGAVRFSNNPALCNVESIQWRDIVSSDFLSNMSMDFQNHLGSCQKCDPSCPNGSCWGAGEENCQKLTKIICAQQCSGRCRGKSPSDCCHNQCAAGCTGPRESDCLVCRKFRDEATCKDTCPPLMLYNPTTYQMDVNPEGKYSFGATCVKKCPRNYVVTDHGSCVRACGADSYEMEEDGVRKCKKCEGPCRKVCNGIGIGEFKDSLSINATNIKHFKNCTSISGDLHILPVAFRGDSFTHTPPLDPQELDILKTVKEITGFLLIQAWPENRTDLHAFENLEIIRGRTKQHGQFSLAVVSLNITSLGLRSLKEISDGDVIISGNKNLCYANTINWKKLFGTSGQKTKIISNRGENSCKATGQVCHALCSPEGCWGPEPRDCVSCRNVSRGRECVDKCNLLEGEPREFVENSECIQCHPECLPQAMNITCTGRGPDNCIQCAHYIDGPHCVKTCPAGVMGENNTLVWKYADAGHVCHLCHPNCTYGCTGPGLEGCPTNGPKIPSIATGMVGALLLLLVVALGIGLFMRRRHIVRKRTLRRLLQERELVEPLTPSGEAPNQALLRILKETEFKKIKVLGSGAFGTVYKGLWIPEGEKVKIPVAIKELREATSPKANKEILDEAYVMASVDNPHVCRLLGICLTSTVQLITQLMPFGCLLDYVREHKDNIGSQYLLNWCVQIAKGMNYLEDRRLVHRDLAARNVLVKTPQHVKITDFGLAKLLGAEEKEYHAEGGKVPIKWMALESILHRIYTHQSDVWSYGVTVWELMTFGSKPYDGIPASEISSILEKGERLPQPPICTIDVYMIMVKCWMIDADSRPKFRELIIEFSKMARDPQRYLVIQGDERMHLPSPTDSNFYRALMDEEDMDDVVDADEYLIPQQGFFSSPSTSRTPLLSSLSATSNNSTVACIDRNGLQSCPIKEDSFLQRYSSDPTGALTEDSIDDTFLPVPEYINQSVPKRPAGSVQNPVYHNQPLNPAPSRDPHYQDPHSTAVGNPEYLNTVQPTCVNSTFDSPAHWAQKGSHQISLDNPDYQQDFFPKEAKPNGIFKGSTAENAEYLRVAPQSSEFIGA
Sequence of Ba/F3 De119/T790M/C797S EGFR triple mutant cell line (P00533 with tags, fused parts or gaps DEL746-750/T790M/C797S, form open): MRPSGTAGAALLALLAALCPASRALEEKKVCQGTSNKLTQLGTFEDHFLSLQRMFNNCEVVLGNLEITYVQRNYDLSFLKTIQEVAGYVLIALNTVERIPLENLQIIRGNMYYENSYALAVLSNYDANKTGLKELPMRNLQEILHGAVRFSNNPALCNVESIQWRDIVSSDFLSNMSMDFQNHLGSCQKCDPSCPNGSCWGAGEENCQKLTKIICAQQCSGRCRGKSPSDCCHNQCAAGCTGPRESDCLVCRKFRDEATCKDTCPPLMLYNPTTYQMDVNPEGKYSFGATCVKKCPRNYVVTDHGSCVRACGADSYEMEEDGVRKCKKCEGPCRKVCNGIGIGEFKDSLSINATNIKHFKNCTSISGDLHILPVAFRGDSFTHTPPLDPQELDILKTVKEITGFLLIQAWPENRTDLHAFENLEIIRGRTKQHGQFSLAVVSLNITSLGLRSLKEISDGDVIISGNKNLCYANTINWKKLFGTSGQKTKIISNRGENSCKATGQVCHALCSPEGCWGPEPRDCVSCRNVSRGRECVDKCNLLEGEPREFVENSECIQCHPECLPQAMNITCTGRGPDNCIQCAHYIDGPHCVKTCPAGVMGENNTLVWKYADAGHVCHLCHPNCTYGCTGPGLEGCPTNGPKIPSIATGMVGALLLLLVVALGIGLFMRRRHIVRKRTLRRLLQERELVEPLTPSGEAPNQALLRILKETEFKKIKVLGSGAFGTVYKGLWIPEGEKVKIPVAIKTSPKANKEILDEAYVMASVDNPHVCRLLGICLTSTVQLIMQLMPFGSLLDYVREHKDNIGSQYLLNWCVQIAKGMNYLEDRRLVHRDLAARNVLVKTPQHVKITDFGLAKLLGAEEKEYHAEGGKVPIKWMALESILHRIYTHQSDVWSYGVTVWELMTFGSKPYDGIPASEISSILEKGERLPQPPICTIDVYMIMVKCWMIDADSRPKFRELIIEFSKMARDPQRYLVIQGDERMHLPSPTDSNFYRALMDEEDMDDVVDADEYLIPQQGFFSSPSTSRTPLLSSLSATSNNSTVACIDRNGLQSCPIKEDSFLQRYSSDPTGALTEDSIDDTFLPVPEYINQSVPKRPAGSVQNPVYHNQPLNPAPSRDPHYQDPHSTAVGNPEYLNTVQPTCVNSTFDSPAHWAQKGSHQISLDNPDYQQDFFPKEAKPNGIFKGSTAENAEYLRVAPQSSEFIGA

Row | SMILES | IC50 [1] [nM] | IC50 [2] [nM] | IC50 [3] [nM] | GI50 [4] [nM] | GI50 [5] [nM]
1 | COc1cc(F)c(-c2cnn(C)c2)cc1Nc1ncc(Br)c(Nc2ccc3nccnc3c2P(C)(C)=O)n1 [compound 84] | 16.6 | 0.33 | 392 | 12.5 | 20.7
2 | COc1cc(N2CCOCC2)c(-c2cnn(C)c2)cc1Nc1ncc(Br)c(Nc2ccc3c(c2P(C)(C)=O)CC3)n1 [compound 85] | 9.06 | 0.11 | 381 | 6.15 | 9.29
3 | COc1cc(N2CCOCC2)c(-c2ccsc2)cc1Nc1ncc(Br)c(Nc2ccc3nccnc3c2P(C)(C)=O)n1 [compound 86] | 345 | 15.6 | 3060 | 87.8 | 136
4 | CN1CCC2(CC1)CCN(c1nc(OCC(F)(F)F)c(Nc3ncc(Br)c(Nc4ccc5nccnc5c4P(C)(C)=O)n3)cc1-c1cnn(C)c1)CC2 [compound 87] | 3.47 | 0.35 | 178 | 5.89 | 14.2
5 | CCN1CCN(c2cc(OC)c(Nc3ncc(Br)c(Nc4ccc5nccnc5c4P(C)(C)=O)n3)cc2-c2cnn(C)c2)CC1 [compound 89] | 2.11 | 0.11 | 40.9 | 2.33 | 4.16
6 | COCCN1CCN(c2cc(OC)c(Nc3ncc(Br)c(Nc4ccc5nccnc5c4P(C)(C)=O)n3)cc2-c2cnn(C)c2)CC1 [compound 92] | 2.34 | 0.03 | 31.8 | 0.54 | 2.85
7 | COc1c(Nc2ncc(Br)c(Nc3ccc4nccnc4c3P(C)(C)=O)n2)cc(-c2cnn(C)c2)c(N2CCC(N3CCN(C)CC3)CC2)c1F [compound 93] | 23.1 | 0.18 | 178 | 12.5 | 27
8 | COc1cc(N2CCS(=O)(=O)CC2)c(-c2cnn(C)c2)cc1Nc1ncc(Br)c(Nc2ccc3nccnc3c2P(C)(C)=O)n1 [compound 94] | 2.78 | 0.15 | 168 | 6.99 | 28.8
9 | COc1cc(N2CCOCC2)c(-c2cn[nH]c2)cc1Nc1ncc(C)c(Nc2ccc3nccnc3c2P(C)(C)=O)n1 [compound 97] | 1.02 | 0.15 | 406 | 6.64 | 25.5
10 | COc1cc(N2CCC(N3CCN(C)CC3)CC2)c(-c2cscn2)cc1Nc1ncc(Br)c(Nc2ccc3nccnc3c2P(C)(C)=O)n1 [compound 98] | 16.2 | 0.82 | 177 | 11 | 27.8
11 | COc1cc(N2CCC3(CCN(C)CC3)CC2)c(-c2cnn(C)c2)cc1Nc1ncc(Br)c(Nc2ccc3nccnc3c2P(C)(C)=O)n1 [compound 101] | 0.41 | 0.18 | 46.1 | 2.87 | 4.53
12 | COc1cc(N2CCN(C3CC3)CC2)c(-c2cnn(C)c2)cc1Nc1ncc(Br)c(Nc2ccc3nccnc3c2P(C)(C)=O)n1 [compound 102] | 1.49 | 0.23 | 108 | 0.76 | 2.02
13 | COc1cc(N2CCN(CCF)CC2)c(-c2cnn(C)c2)cc1Nc1ncc(Br)c(Nc2ccc3nccnc3c2P(C)(C)=O)n1 [compound 103] | 1.57 | 0.13 | 152 | 0.51 | 5.02
14 | COc1cc(N2CCOC[C@H]2C)c(-c2cnn(C)c2)cc1Nc1ncc(Br)c(Nc2ccc3nccnc3c2P(C)(C)=O)n1 [compound 104] | 27.2 | 0.95 | 192 | 4.07 | 17.7
15 | COc1cc(N2CCNC(=O)C2)c(-c2cnn(C)c2)cc1Nc1ncc(Br)c(Nc2ccc3nccnc3c2P(C)(C)=O)n1 [compound 105] | 5.62 | 0.16 | 1190 | 20.9 | 61.9
16 | COc1cc(N2C[C@@H]3C[C@H]2CO3)c(-c2cnn(C)c2)cc1Nc1ncc(Br)c(Nc2ccc3nccnc3c2P(C)(C)=O)n1 [compound 107] | 26.4 | 1.3 | 380 | 11.2 | 30.9
17 | COc1cc(N2CCN(S(C)(=O)=O)CC2)c(-c2cnn(C)c2)cc1Nc1ncc(Br)c(Nc2ccc3nccnc3c2P(C)(C)=O)n1 [compound 110] | 1.54 | 0.57 | 162 | 3.7 | 10.9

Row | SMILES | IC50 [1] [nM] | IC50 [2] [nM] | IC50 [3] [nM] | GI50 [4] [nM] | GI50 [5] [nM]
18 | COc1cc(N2C[C@@H](C)O[C@@H](C)C2)c(-c2cnn(C)c2)cc1Nc1ncc(Br)c(Nc2ccc3nccnc3c2P(C)(C)=O)n1 [compound 111] | 5.65 | 1.38 | 210 | 3.22 | 4.79
19 | COc1cc(N2CCN(C(N)=O)CC2)c(-c2cnn(C)c2)cc1Nc1ncc(Br)c(Nc2ccc3nccnc3c2P(C)(C)=O)n1 [compound 112] | 0.92 | 0.26 | 1100 | 57 | 161
20 | COc1cc(N2C[C@H]3C[C@@H]2CO3)c(-c2cnn(C)c2)cc1Nc1ncc(Br)c(Nc2ccc3nccnc3c2P(C)(C)=O)n1 [compound 114] | 5.41 | 0.56 | 271 | 5.86 | 11.2
21 | COc1cc(N2CCOC(CO)C2)c(-c2cnn(C)c2)cc1Nc1ncc(Br)c(Nc2ccc3nccnc3c2P(C)(C)=O)n1 (stereo not drawn) [compound 115] | 1.65 | 0.4 | 159 | 6.53 | 16.1
22 | COc1cc(N2CCN(C(=O)C3CC3)CC2)c(-c2cnn(C)c2)cc1Nc1ncc(Br)c(Nc2ccc3nccnc3c2P(C)(C)=O)n1 [compound 116] | 3.13 | 1.31 | 169 | 2.25 | 8.15
23 | COc1cc(N2CCC(N3CCN(C)CC3)CC2)c(-c2cnn(C)c2)cc1Nc1ncc(F)c(Nc2ccc3nccnc3c2P(C)(C)=O)n1 [compound 119] | 4.07 | 1.3 | 639 | 36.6 | 239
24 | COc1cc(N2CCOC(C)(C)C2)c(-c2cnn(C)c2)cc1Nc1ncc(Br)c(Nc2ccc3nccnc3c2P(C)(C)=O)n1 [compound 120] | 9.84 | 1.17 | 197 | 2.62 | 8.67
25 | COc1cc(N2CCC(O)CC2)c(-c2cnn(C)c2)cc1Nc1ncc(Br)c(Nc2ccc3nccnc3c2P(C)(C)=O)n1 [compound 121, (6-((5-bromo-2-((4-(4-hydroxypiperidin-1-yl)-2-methoxy-5-(1-methyl-1H-pyrazol-4-yl)phenyl)amino]pyrimidin-4-yl)amino)quinoxalin-5-yl)dimethylphosphine oxide] | 0.67 | 0.25 | 150 | 1.61 | 6.16
26 | CN(C)CCN1CCOc2c(Nc3ncc(Br)c(Nc4ccc5nccnc5c4P(C)(C)=O)n3)cc(-c3cnn(C)c3)cc21 [compound 122] | 3.42 | 0.62 | 37.2 | 2.07 | 9.96
27 | Cn1cc(-c2cc(Nc3ncc(Br)c(Nc4ccccc4P(C)(C)=O)n3)c(OCC(F)(F)F)nc2N2CCOCC2)cn1 [compound 123] | 121 | 1.12 | 8840 | 24.3 | 82
28 | COc1cc(N2CCC(F)CC2)c(-c2cnn(C)c2)cc1Nc1ncc(Br)c(Nc2ccc3nccnc3c2P(C)(C)=O)n1 [compound 124] | 8.35 | 1.2 | 516 | 3.93 | 7.93
29 | COc1cc(N2CCOCC2)c(-c2cnn(C)c2)cc1Nc1ncc(Br)c(Nc2ccccc2NS(=O)(=O)C2CC2)n1 [compound 125] | 23.8 | 0.53 | 490 | 5.87 | 14.4
30 | COc1cc(N2CCOCC2)c(-c2cnn(C)c2)cc1Nc1ncc(Br)c(Nc2ccc3nccnc3c2NS(C)(=O)=O)n1 [compound 126] | 1.55 | 0.15 | 286 | 0.93 | 3.81
31 | COC[C@@H]1CN(c2cc(OC)c(Nc3ncc(Br)c(Nc4ccc5nccnc5c4P(C)(C)=O)n3)cc2-c2cnn(C)c2)CCO1 [compound 127] | 2.83 | 0.24 | 170 | 0.59 | 4.18
32 | COc1cc(N2CCC(OC)C2)c(-c2cnn(C)c2)cc1Nc1ncc(Br)c(Nc2ccc3nccnc3c2P(C)(C)=O)n1 (stereo not drawn) [compound 128] | 6.83 | 0.53 | 397 | 2.86 | 11.9
33 | COc1cc(N2CCN3CCCC3C2)c(-c2cnn(C)c2)cc1Nc1ncc(Br)c(Nc2ccc3nccnc3c2P(C)(C)=O)n1 (stereo not drawn) [compound 130] | 1.44 | 0.05 | 73.5 | 1 | 9
